# Source: patent publication US20250361226A1, “PHARMACEUTICALLY ACCEPTABLE SALT OF BENZO[C]CHROMAN COMPOUND AND P[…] AND USE OF PHARMACEUTICALLY ACCEPTABLE SALT” (REISTONE BIOPHARMA COMPANY LIMITED, priority 2022, published 2025)
# Columns and labels:
# [1] = Dynamic vapor sorption (DVS) with XRPD before and after; format: physicochemical
# Method: (§1) Test conditions for the instruments used in experiments of the present disclosure: • 1. X-ray Powder Diffraction, XRPD • Instrument type: Malver Panalytical Aeris X-ray powder diffractometer • Ray: monochromatic Cu—Kα ray (λ=1.54188) • Scanning mode: θ/2θ, Scanning range (2θ range): 3.5-50° • Voltage: 40 kV, Electric current: 15 mA • 2. Differential Scanning calorimetry, DSC • Instrument type: TA DSC250 • Purge gas: Nitrogen; Nitrogen purge rate: 50 mL/min • Heating rate: 10° C./min • Temperature range: 25° C.-250° C. • 3. Thermogravimetric Analysis, TGA • Instrument type: TA TGA550 • Purge gas: Nitrogen; Nitrogen purge rate: 20 ml/min • Scanning rate: 10° C./min • Temperature range: 30° C.-350° C. • 4. Dynamic vapor sorption (DVS) • Using SMS Intrinsic PLUS, the detection is performed at 25° C., with humidity change of 50%-0%-90% with a step size of 10%, in which the criteria for judging is that the mass change dM/dT for each gradient is less than 0.002%, TMAX is 360 min, and two cycles are performed. • 5. High performance liquid chromatography (HPLC) described in the stability test of the crystal form A of the present disclosure is determined on Agilent 1260 Infinity II.
# During the humidity change of 0%-90% RH, the desorption process of the sample coincides with the adsorption process thereof.
# [2] = Stability test (influence factor tests: light, temperature, humidity) by HPLC and XRPD; format: physicochemical
# Method: as §1
# (§2) In the content detection method by the high performance liquid chromatography described in the present disclosure, HPLC conditions are as follows: chromatographic column, Agilent Eclipse Plus C18 4.6 mm*150 mm, 3.5 μm; mobile phase, A-10 mmol/L solution of sodium dihydrogen phosphate (pH 8.0), and B-ACN; flow rate, 1.0 ml/min; wavelength, 210 nm.
# as §2, with “related substances” for “content”, “ammonium acetate,” for “sodium dihydrogen phosphate (pH 8.0),”
# It is determined whether light, temperature and humidity have an influence on the stability of crystal form A of hydrochloride salt of the compound of formula I. The crystal form A of hydrochloride salt was placed in a stabilizing chamber in the dark and subjected to influence factor tests using a series of temperature and humidity combinations. After being placed for different days under light and various temperature and humidity conditions, the samples were taken out and compared with the initial crystal form A of hydrochloride salt. […] The samples taken out on the last day under light and various temperature and humidity conditions were subjected to XRPD detection, showing that the crystal form A of hydrochloride salt had no change and had good stability.
smiles,measurement,setting,value
Cl.N#Cc1ccc2c(c1)COc1cc(C[C@@H](C#N)NC(=O)[C@@H]3CNCCCO3)c(F)cc1-2 [Crystal form A of hydrochloride salt],weight gain by hygroscopicity,"[1]; DVS, 25° C., 80% RH",approximately 1.1%
same,crystal form before and after DVS detection (XRPD),[1]; humidity change 0%-90% RH,the crystal form did not change
same,Content %,[2]; 25° C. 92% - one week,99.37%
same,Isomers %,[2]; 25° C. 92% - one week,0.63%
same,Content %,[2]; 25° C. 92% - two weeks,99.31%
same,Isomers %,[2]; 25° C. 92% - two weeks,0.70%
same,Content %,[2]; 40° C. 75% - one week,99.31%
same,Isomers %,[2]; 40° C. 75% - one week,0.69%
same,Content %,[2]; 40° C. 75% - two weeks,99.32%
same,Isomers %,[2]; 40° C. 75% - two weeks,0.68%
same,Content %,[2]; 60° C. - one week,99.31%
same,Isomers %,[2]; 60° C. - one week,0.70%
same,Content %,[2]; 60° C. - two weeks,99.33%
same,Isomers %,[2]; 60° C. - two weeks,0.67%
same,increase in isomers of the compound of formula I versus initial (HPLC),[2]; different days under light and various temperature and humidity conditions,none of them had a significant increase
same,Content %,[2]; initial,99.54%
same,Isomers %,[2]; initial,0.67%
same,Content %,"[2]; light, 0.5 ICH",99.44%
same,Isomers %,"[2]; light, 0.5 ICH",0.67%
same,Content %,"[2]; light, 1 ICH",99.32%
same,Isomers %,"[2]; light, 1 ICH",0.67%
same,crystal form by XRPD after influence factor tests,[2]; samples of the last day under light and various temperature and humidity conditions,had no change
